In patent US12465609B2, “Methods of treating patients suffering from a disease condition or disorder that is associated with an increased glutamate level” (veriNOS operations GmbH, priority 2022, dated 2025):

What was measured:
[1] = Safety and adverse event analyses, NOSTRA III; assay type: in vivo
Experimental: Safety analyses was performed using standard descriptive methods.
The total number of treatment-emergent adverse events (TEAE) and the total number of patients with TEAEs, the total number of TEAEs related to the study drug (certain, probable, possible), the total number of patients with TEAEs related to the study drug, the total number of TEAEs and the total number of patients with serious TEAEs, the total number of patients with TEAEs leading to discontinuation of study treatment and the total number of patients with TEAEs leading to death were summarised by treatment arm.

[2] = tested on: C57 BL/6 mice, controlled cortical impact (CCI) model; assay: Controlled cortical impact (CCI) model in mice, intracranial pressure (ICP); assay type: in vivo; conditions: CCI mice, analogous treatment
Text: The primary objective of this experiment was the characterization of the intracranial pressure (ICP) reduction by VAS3384 in the controlled cortical impact (CCI) model in mice. The secondary objective was characterization of the neuroprotective effect (reduction of the lesion volume) of VAS3384 in the controlled cortical impact model in mice.
• Test compound A • Denomination: VAS 3384 • Active agent: 4-Amino-4-desoxy-7,8-dihydrobiopterin-dihydrochloride, obtained from Schircks Laboratories, Bauma, Switzerland • Detailed composition: VAS 3384 dissolved in sodium phosphate buffer (PBS) pH 7.4 • Formulation method: 15 mg of the test compound (VAS 3384) are dissolved in 500 μl PBS, pH 7.4. The solution is neutralized with 72 μl 1 N NaOH and filled up with 428 μl water (check pH). • Final concentration of active agent: 15 mg/ml • Appearance: yellow, clear solution • Storage (solid test compound): −20° C. • Dose applied: 560 mg/kg or 37.3 ml/kg • Way of administration: intravenous injection/infusion • Negative control • Denomination: sodium phosphate buffer (PBS) • Active agent: none • Detailed composition: Na2HPO4, NaH2PO4, 100 mM pH 7.4 • Formulation method: ready for use • Final concentration of active agent: not applicable • Appearance: colourless, clear solution • Expiration date: 3 months after preparation • Volume applied: 37.3 ml/kg • Way of administration: intravenous injection/infusion Experimental Procedure
The animals (C57 BL/6 mice), under Dormicum/Methidomidin/Fentanyl-narcosis were fixed in a stereo tactical frame and the scalp was opened with a cut along the median. The skull bone
was laid open and disinfected with H2O2. A hole of approx. 1.2 mm diameter was then drilled into the skull (Bregma 0.4-0.4 mm). The ICP-probe was introduced through this hole. The V. jugularis was be laid open and a catheter introduced. This catheter was introduced in the neck subcutaneously and fixed on the cap of the cage with a protective spiral of metal. This setup permitted an infusion in awake animals. The skull was opened above of the right cortex and mechanically traumatized (CCI model). The skullcap was then closed with the removed bone.
Mice 1-9: 10 minutes after the trauma the animals got an intravenous bolus injection of 20 mg/kg VAS 3384 (=1.33 ml/kg) followed by an infusion of 1.5 mg/kg/min (=100 μl/kg/min) VAS 3384 over six hours to maintain the dose. After six hours, after termination of the infusion, and after 24 hours the ICP of the animals was measured. After 24 hours the animals were sacrificed, the brains dissected and the lesion volume determined by Nissl's method.
Mice 10-18: 10 minutes after the trauma the animals received an intravenous bolus injection of 1.33 ml/kg PBS followed by an infusion of 100 μl/kg/min PBS over six hours. After six hours, after the termination of the infusion, and after 24 hours the ICP of the animals was measured.
At the end of the observation period animals were sacrificed by cervical dislocation in deep halothane anaesthesia. The brains were carefully removed, frozen in powdered dry ice, and stored at −20° C. until further use. Ten μm coronal sections were prepared every 500 μm on a cryostat (CryoStar HM 560, Microm, Walldorf, Germany) and stained with cresyl violet. Sections were photographed with a digital camera system. The contusion area, the area of the non-traumatized tissue of the ipsilateral hemisphere, and the area of the contralateral hemisphere were determined on the digitized images with a standard image analysis software (Optimate 6.51, Media Cybernetics, Silver Spring, MD, USA) by an investigator blinded to the treatment of the animals. In order to correct for the swelling of contused tissue, the contusion area was calculated by subtracting the area of the non-traumatized tissue of the ipsilateral hemisphere from the area of the contralateral hemisphere. […]

For C[C@H](O)[C@H](O)C1CNc2nc(N)nc(N)c2N1 (mixture of isomers) [Ronopterin, 4-Amino-(6R,S)-5,6,7,8-tetrahydro-L-biopterin], the “number of renal AEs” value ([1]; Ronopterin:placebo 11:3) was 11, the “tolerability of study treatment” value ([1]; no significant new safety findings) was “well-tolerated” and the “proportion of patients with ICP increased (AE)” value ([1]; placebo 11.7%) was 23.9%. For the same compound, the “number of patients with ICP increased (AE)” value ([1]; placebo 13) was 27 patients, the “number of adverse events (AEs) and serious adverse events (SAEs) compared to the placebo groups” value ([1]; related AE/SAEs low and comparable) was “slightly higher number” and the “time ICP remained lowered after the treatment” value [2] was “at least 18 h”.
